In the case of `NS(=O)(=O)c1ccc2cccnc2c1`, the logP was found to be 0.61.
`NS(=O)(=O)c1ccnc2ccccc12`: the logP was 0.93.
The result for `NS(=O)(=O)c1cccc2ncccc12` reads 0.6; that for `CNS(=O)(=O)c1cccc2cccnc12`, 1.13.
The value for `CN(C)S(=O)(=O)c1ccc2ccccc2n1` was 1.98.
For `CNS(=O)(=O)c1ccc2cccnc2c1`, the logP was 1.02.
As for `NS(=O)(=O)c1ccc2ccccc2n1`, the logP came to 1.16.
Turning to `CNS(=O)(=O)c1cnc2ccccc2c1`, the logP was determined as 1.4.
The value for `CN(C)S(=O)(=O)c1ccc2cccnc2c1` was 1.57.
The result for `CN(C)S(=O)(=O)c1ccc2ncccc2c1` reads 1.53.
For the compound `CNS(=O)(=O)c1cccc2ncccc12`, the logP amounted to 1.06.
On to `NS(=O)(=O)c1cnc2ccccc2c1`, for which the logP was 0.91.
On to `CNS(=O)(=O)c1ccnc2ccccc12`, for which the logP was 1.32.
The value for `CN(C)S(=O)(=O)c1cccc2cccnc12` was 1.69; that for `CN(C)S(=O)(=O)c1cccc2ncccc12` was 1.56; that for `NS(=O)(=O)c1cccc2cccnc12` was 0.51.
`CNS(=O)(=O)c1ccc2ncccc2c1` had a logP of 1.
The result for `CN(C)S(=O)(=O)c1cnc2ccccc2c1` reads 1.86; that for `CNS(=O)(=O)c1ccc2ccccc2n1`, 1.57; that for `CN(C)S(=O)(=O)c1ccnc2ccccc12`, 1.84.

By logP is commonly meant a log measure of how a compound divides between an organic and an aqueous phase. Lower therefore signals a more hydrophilic compound.

Values taken from the SangsterLogP compilation.
